Consider ten molecules from ChEMBL document CHEMBL3124768, “Substituted imidazothiazoles as inhibitors of viral polymerase” (ACS Med Chem Lett, 2014).

The test system of assay [1] is Hepatitis C virus. The experiment in a line: Antiviral activity against Hepatitis C virus genotype 1b isolate Con1 assessed as inhibition of HCV replicon-encoded Renilla luciferase reporter activity after 72 hrs by cell-based replicon assay. The format is functional, organism-based, Hepacivirus hominis. The conditions noted are these: isolate Con1, 72 h.
Assay [2] in a line: Inhibition of HCV genotype 1b isolate BK truncated NS5B polymerase lacking C-terminal 21 amino acids assessed as inhibition of 33P-GTP incorporation using Poly(rC) template by scintillation counting analysis. Details: species or system Hepatitis C virus (isolate BK).

For `CNC(=O)c1c(-c2ccc(F)cc2)nc2sc(-c3cc(C(=O)NC(C)(C)c4ncccn4)ccc3C)cn12`, in assay [1], the EC50 is under 250 nM. In assay [2], the concentration for half-maximal inhibition (IC50) worked out at 1000 nM.

`CNC(=O)c1c(-c2ccc(F)cc2)nc2sc(-c3cc(C(=O)NC(C)(C)c4ccccc4)ccc3C)cn12`: in assay [1], the 50% effective concentration (EC50) is under 250 nM. The 50% inhibitory concentration (IC50) in assay [2] was under 250 nM.

For the molecule `CNC(=O)c1c(-c2ccc(F)cc2)nc2sc(-c3cccc(C(=O)NC(C)(C)c4ccccc4)c3)cn12`, in assay [1], the EC50 was under 250 nM. Also, the IC50 in assay [2] is under 250 nM.

Turning to `CNC(=O)c1c(-c2ccc(F)cc2)nc2sc(-c3cccc(C(=O)NC4(c5ccccn5)CC4)c3)cn12`, in assay [1], the EC50 is under 250 nM. Besides, the IC50 in assay [2] is under 250 nM.

`CNC(=O)c1c(-c2ccc(F)cc2)nc2sc(-c3cccc(C(=O)NC4(c5ccccc5)CC4)c3)cn12`: the EC50 in assay [1] is under 250 nM. Besides, the half-inhibitory concentration (IC50) in assay [2] came out at 1000 nM.

On to `CNC(=O)c1c(-c2ccc(F)cc2)nc2sc(-c3cc(C(=O)N[C@@H](C)c4ccccc4)ccc3C)cn12`, for which, in assay [1], the EC50 was under 250 nM. Also, in assay [2], the IC50 was under 250 nM.

As to `CNC(=O)c1c(-c2ccc(F)cc2)nc2sc(-c3cc(C(=O)NC(C)(C)C(=O)OC)ccc3C)cn12`, the EC50 in assay [1] was under 250 nM. The concentration for half-maximal inhibition (IC50) in assay [2] is 1000 nM.

Consider `CNC(=O)c1c(-c2ccc(F)cc2)nc2sc(-c3cc(C(=O)NC4(C(C)C)CC4)ccc3C)cn12`, for which, in assay [1], the EC50 was under 250 nM. Also, the IC50 in assay [2] was 1000 nM.

`CNC(=O)c1c(-c2ccc(F)cc2)nc2sc(-c3cc(C(=O)NC(C)(C)c4ccccc4)ccc3OC)cn12`: in assay [1], the EC50 is under 250 nM. Also, the IC50 in assay [2] was under 250 nM.

Regarding `CNC(=O)c1c(-c2ccc(F)cc2)nc2sc(-c3cc(C(=O)NC(C)(C)c4ccccc4)c(OC)cc3C)cn12`, in assay [1], the EC50 is under 250 nM. Moreover, the IC50 in assay [2] is under 250 nM.
